“Also recorded” adds a separate entry of the source. Like-named read-outs stand apart in the source and are kept apart here.
Experiments:
Assay type in all cases: physicochemical
[1] = Dissolution in kolliphor (40% wt) and propylene glycol (60% wt); conditions: mixture of kolliphor (40% wt) and propylene glycol (60% wt)
Method: A batch of plinabulin having a KF analysis of about 3.1% for water content was added to a mixture of kolliphor (40% wt) and propylene glycol (60% wt). […] The batch was reprocessed according to the steps described in FIG. 29 to form the plinabulin monohydrate (Form 1).

[2] = Dynamic Vapor Sorption (DVS) test
Method: The DSC data were collected using a TA Instruments Q10 DSC. Typically, samples (˜2 mg) were placed in hermetic alodined aluminum sample pans and scanned from 30 to 300° C. at a rate of 10° C./min under a nitrogen purge of 50 mL/min. The TGA data were collected using a TA Instruments TGA Q500. Typically, samples (˜10 mg) were placed in an open, pre-tared aluminum sample pan and scanned from 30 to 300° C. at a rate of 10° C./min using a nitrogen purge at 60 mL/min. The X-ray powder diffraction patterns were obtained using a Bruker D8 Advance equipped with a Cu Ku radiation source ([…]), a 9-position sample holder and a LYNXEYE Super Speed Detector. Typically, the duration of each scan was 180 seconds and the 2θ range was 4 to 40°. Samples were placed on zero-background, silicon plate holders. Samples were analyzed using an Aquadyne DVS-2 gravimetric water sorption analyzer. The relative humidity was adjusted between 2-95% and the weight of sample was continuously monitored and recorded.
A DVS experiment was run on the plinabulin monohydrate (Form 1). The sample gained ˜0.1% mass at 95% RH which was lost on drying to 0% RH without hysteresis. […] The XRPD pattern of the pre-DVS sample (Form 1 plinabulin monohydrate) overlays with the XRPD patterns of the post-DVS sample (Form 1 plinabulin monohydrate).

[3] = Gravimetric solubility measurement in solvents; conditions: for solubility at 3 days: thermodynamic from solid, slurried 3 days
Method: A plinabulin compound was slurried in 15 different solvents/solvent mixtures as shown in Table 9 at 15° C. and 45° C. for 3 days for gravimetric solubility measurement. About 70 mg of solid was added to a vial for each experiment followed by addition of 0.7 mL of the respective solvents. Next, the slurry was centrifuged and the supernatant was added to pre-weighed vials and evaporated to dryness under vacuum. The vials with remaining solids were weighed again to calculate the solubility. […]

[4] = High humidity exposure stability; conditions: >95% RH for 13 days
Excerpt: Form 1 was also stable under various humidity conditions. On the other hand, the crystalline forms converted to Form I monohydrate when exposed to moisture.

[5] = Drying study in vacuum oven at 50° C.; conditions: overnight and over the weekend
Method: A sample of plinabulin monohydrate (Form 1) was placed in a vacuum oven at 50° C. overnight and over the weekend.

[6] = Karl Fischer moisture level on extended drying and humid exposure
Method: Analysis by KF after drying at 45° C. under vacuum for an additional 70 hours indicated the moisture level had decreased to 4.1%. […] This sample was placed in a glove bag in an open container with an open container of water and the moisture level monitored. After 4 hours the moisture level was measured as 5.0%. After 18.5 hours the moisture level was measured as 4.8% and after 51 hours the KF result was 4.9%.
A sample of plinabulin compound (4.92 g) was stirred in ethanol (147.6 g) and heated to reflux (fully soluble at 75° C.). The solution was then allowed to cool and monitored for precipitation. A precipitate was observed when the solution was at 48° C. The mixture was re-heated to reflux providing a clear yellow solution. To the hot solution was added 295 g of water (approximately twice the mass of ethanol) allowing the mixture to cool during the addition. A precipitate was observed after charging approximately 150 mL of water with the temperature at 48° C. This solution was allowed to cool to room temperature. The solids were filtered and washed three times with 20 g of water. The solid was dried at 40-45° C. for 2.5 days to give 4.82 g, 98.0% recovery. […] Analysis by KF after drying at 45° C. under vacuum for an additional 70 hours indicated the moisture level had decreased to 4.4%. The XRPD of this sample indicates it was essentially unchanged, a mixture of Forms 1 and 3 with additional peaks (at around 12.26°, 15.19° and 28.79° 2θ degrees). This sample was placed in a glove bag in an open container with an open container of water and the moisture level monitored. After 4 hours the moisture level was measured as 5.0%. After 18.5 hours the moisture level was measured as 4.9% and after 51 hours the KF result was 5.1%.

[7] = listed as plinabulin monohydrate (Form 1)

CC(C)(C)c1[nH]cnc1/C=c1\[nH]c(=O)/c(=C/c2ccccc2)[nH]c1=O [Form 3]
dissolution in diluent mixture ([1]; listed as anhydrous plinabulin (Form 3)): insoluble particles
post-DVS sample versus pre-DVS sample by XRPD [2]: differed from the pre-DVS sample
mass lost in DVS ([2]; at 90% RH): about 0.2%

CC(C)(C)c1[nH]cnc1/C=c1\[nH]c(=O)/c(=C/c2ccccc2)[nH]c1=O [plinabulin monohydrate, (3Z,6Z)-3-Benzylidene-6-{[5-(2-methyl-2-propanyl)-1H-imidazol-4-yl]methylene}-2,5-piperazinedione]
solubility at 3 days ([3]; organic solvent or mixture, ACN, 15° C., read-out: Solubility at 15° C.): 3000 µg/mL
solubility at 3 days ([3]; organic solvent or mixture, ACN, 45° C., read-out: Solubility at 45° C.): 7000 µg/mL
solubility at 3 days ([3]; organic solvent or mixture, Acetone:water (95:5), 15° C., read-out: Solubility at 15° C.): 6000 µg/mL
solubility at 3 days ([3]; organic solvent or mixture, Acetone:water (95:5), 45° C., read-out: Solubility at 45° C.): 16000 µg/mL
solubility at 3 days ([3]; organic solvent or mixture, Acetone, 15° C., read-out: Solubility at 15° C.): 11000 µg/mL
solubility at 3 days ([3]; organic solvent or mixture, Acetone, 45° C., read-out: Solubility at 45° C.): 20000 µg/mL
solubility at 3 days ([3]; organic solvent or mixture, DCM, 15° C., read-out: Solubility at 15° C.): 2000 µg/mL
solubility at 3 days ([3]; organic solvent or mixture, EtOAc, 15° C., read-out: Solubility at 15° C.): 3000 µg/mL
solubility at 3 days ([3]; organic solvent or mixture, EtOAc, 45° C., read-out: Solubility at 45° C.): 8000 µg/mL
solubility at 3 days ([3]; organic solvent or mixture, EtOH:water (95:5), 15° C., read-out: Solubility at 15° C.): 4000 µg/mL
solubility at 3 days ([3]; organic solvent or mixture, EtOH:water (95:5), 45° C., read-out: Solubility at 45° C.): 13000 µg/mL
solubility at 3 days ([3]; organic solvent or mixture, EtOH, 15° C., read-out: Solubility at 15° C.): 5000 µg/mL
solubility at 3 days ([3]; organic solvent or mixture, EtOH, 45° C., read-out: Solubility at 45° C.): 13000 µg/mL
solubility at 3 days ([3]; organic solvent or mixture, Heptane, 15° C., read-out: Solubility at 15° C.): < 1000 µg/mL
solubility at 3 days ([3]; organic solvent or mixture, Heptane, 45° C., read-out: Solubility at 45° C.): 3000 µg/mL
solubility at 3 days ([3]; organic solvent or mixture, IPA, 15° C., read-out: Solubility at 15° C.): 1000 µg/mL
solubility at 3 days ([3]; organic solvent or mixture, IPA, 45° C., read-out: Solubility at 45° C.): 7000 µg/mL
solubility at 3 days ([3]; organic solvent or mixture, MEK, 15° C., read-out: Solubility at 15° C.): 11000 µg/mL
solubility at 3 days ([3]; organic solvent or mixture, MEK, 45° C., read-out: Solubility at 45° C.): 23000 µg/mL
solubility at 3 days ([3]; organic solvent or mixture, MTBE, 15° C., read-out: Solubility at 15° C.): < 1000 µg/mL
solubility at 3 days ([3]; organic solvent or mixture, MTBE, 45° C., read-out: Solubility at 45° C.): 5000 µg/mL
solubility at 3 days ([3]; organic solvent or mixture, MeOH, 15° C., read-out: Solubility at 15° C.): 5000 µg/mL
solubility at 3 days ([3]; organic solvent or mixture, MeOH, 45° C., read-out: Solubility at 45° C.): 13000 µg/mL
solubility at 3 days ([3]; organic solvent or mixture, THF, 15° C., read-out: Solubility at 15° C.): 40000 µg/mL
solubility at 3 days ([3]; organic solvent or mixture, THF, 45° C., read-out: Solubility at 45° C.): 96000 µg/mL
solubility at 3 days ([3]; organic solvent or mixture, Toluene, 15° C., read-out: Solubility at 15° C.): 1000 µg/mL
solubility at 3 days ([3]; organic solvent or mixture, Toluene, 45° C., read-out: Solubility at 45° C.): 7000 µg/mL
solubility at 3 days ([3]; Water, 15° C., read-out: Solubility at 15° C.): < 1000 µg/mL
solubility at 3 days ([3]; Water, 45° C., read-out: Solubility at 45° C.): < 1000 µg/mL
dissolution in diluent mixture [1, 7]: dissolved completely
stability during the DVS and drying tests (in words) [2]: remained stable
mass gained in DVS ([2]; at 95% RH): ~0.1%
post-DVS sample versus pre-DVS sample by XRPD [2, 7]: no transformation had taken place
stability in high humidity environment ([4]; listed as form 1): no change in solid form
stability in high humidity environment [4, 7]: no change in solid form; also recorded: remained stable with no change in mass
change in weight during drying [5]: no change in weight
stability on drying [5, 7]: stable to drying; also recorded: remained stable
moisture level (KF) ([6]; after drying at 45° C. under vacuum for an additional 70 hours): 4.1%
moisture level (KF) ([6]; dried sample in glove bag with open container of water, after 4 hours): 5.0%
moisture level (KF) ([6]; dried sample in glove bag with open container of water, after 18.5 hours): 4.8%
moisture level (KF) ([6]; dried sample in glove bag with open container of water, after 51 hours): 4.9%

CC(C)(C)c1[nH]cnc1/C=c1\[nH]c(=O)/c(=C/c2ccccc2)[nH]c1=O [plinabulin compound, (3Z,6Z)-3-Benzylidene-6-{[5-(2-methyl-2-propanyl)-1H-imidazol-4-yl]methylene}-2,5-piperazinedione]
solubility (in words) ([3]; THF): highly soluble

Source: patent US11254657B2, “Plinabulin compositions” (priority 2015, dated 2022)
